From PMC8699473, “An Easily Expandable Multi-Drug LC-MS Assay for the Simultaneous Quantification of 57 Oral Antitumor Drugs in Human Plasma” (Cancers, 2021)

Assays:
[1] = Short-term stability in spiked pooled human plasma (bench-top, 4 °C, 56 °C)
[2] = Long-term stability in spiked pooled human plasma
[3] = set-up: method as in supplement references [1-55] as printed per drug; settings: minimum steady-state blood plasma concentration after multiple dose administration; ref supplement references [1-55] per drug; cited from earlier work
[4] = Freeze-thaw stability in spiked pooled human plasma; assay type: physicochemical
[5] = Autosampler stability of ready for injection samples; assay type: physicochemical, human

C[C@@H](Oc1cc(-c2cnn(C3CCNCC3)c2)cnc1N)c1c(Cl)ccc(F)c1Cl [Crizotinib]
Short-time stability (24h, RT, with daylight) Accuracy [%] ([1]; validation standard 2xLLOV): 85.9%
Short-time stability (24h, RT, without daylight) Accuracy [%] ([1]; validation standard 2xLLOV): 92.4%
Short-time stability (24h, RT, with daylight) Accuracy [%] ([1]; validation standard LLOV): 62.9%
Short-time stability (24h, RT, without daylight) Accuracy [%] ([1]; validation standard LLOV): 71.2%
Short-time stability (24h, RT, with daylight) Accuracy [%] ([1]; validation standard MOV): 95.3%
Short-time stability (24h, RT, without daylight) Accuracy [%] ([1]; validation standard MOV): 99.8%
Short-time stability (24h, RT, with daylight) Accuracy [%] ([1]; validation standard ULOV): 85.2%
Short-time stability (24h, RT, without daylight) Accuracy [%] ([1]; validation standard ULOV): 89.5%
Long-term stability, 1 month, -20°C Accuracy [%] ([2]; validation standard 2xLLOV): 87.5%
Long-term stability, 1 month, -80°C Accuracy [%] ([2]; validation standard 2xLLOV): 85.4%
Long-term stability, 2 month, -20°C Accuracy [%] ([2]; validation standard 2xLLOV): 90.8%
Long-term stability, 2 month, -80°C Accuracy [%] ([2]; validation standard 2xLLOV): 93.8%
Long-term stability, 3 month, -20°C Accuracy [%] ([2]; validation standard 2xLLOV): 87.5%
Long-term stability, 3 month, -80°C Accuracy [%] ([2]; validation standard 2xLLOV): 90.2%
Long-term stability, 6 weeks, 4°C, without daylight Accuracy [%] ([2]; validation standard 2xLLOV): 68.4%
Long-term stability, 1 month, -20°C Accuracy [%] ([2]; validation standard LLOV): 77.1%
Long-term stability, 1 month, -80°C Accuracy [%] ([2]; validation standard LLOV): 75.4%
Long-term stability, 2 month, -20°C Accuracy [%] ([2]; validation standard LLOV): 74.2%
Long-term stability, 2 month, -80°C Accuracy [%] ([2]; validation standard LLOV): 78.9%
Long-term stability, 3 month, -20°C Accuracy [%] ([2]; validation standard LLOV): 72.6%
Long-term stability, 3 month, -80°C Accuracy [%] ([2]; validation standard LLOV): 73.9%
Long-term stability, 6 weeks, 4°C, without daylight Accuracy [%] ([2]; validation standard LLOV): 58.2%
Long-term stability, 1 month, -20°C Accuracy [%] ([2]; validation standard MOV): 90.2%
Long-term stability, 1 month, -80°C Accuracy [%] ([2]; validation standard MOV): 89.3%
Long-term stability, 2 month, -20°C Accuracy [%] ([2]; validation standard MOV): 96.3%
Long-term stability, 2 month, -80°C Accuracy [%] ([2]; validation standard MOV): 96.2%
Long-term stability, 3 month, -20°C Accuracy [%] ([2]; validation standard MOV): 94.9%
Long-term stability, 3 month, -80°C Accuracy [%] ([2]; validation standard MOV): 95.1%
Long-term stability, 6 weeks, 4°C, without daylight Accuracy [%] ([2]; validation standard MOV): 93.4%
Long-term stability, 1 month, -20°C Accuracy [%] ([2]; validation standard ULOV): 84.4%
Long-term stability, 1 month, -80°C Accuracy [%] ([2]; validation standard ULOV): 80.1%
Long-term stability, 2 month, -20°C Accuracy [%] ([2]; validation standard ULOV): 88.8%
Long-term stability, 2 month, -80°C Accuracy [%] ([2]; validation standard ULOV): 89.2%
Long-term stability, 3 month, -20°C Accuracy [%] ([2]; validation standard ULOV): 88.4%
Long-term stability, 3 month, -80°C Accuracy [%] ([2]; validation standard ULOV): 89.7%
Long-term stability, 6 weeks, 4°C, without daylight Accuracy [%] ([2]; validation standard ULOV): 83.8%
cmin [3]: 274 ng/mL
Freeze-Thaw Accuracy [%] ([4]; validation standard 2xLLOV): 94.8%
Freeze-Thaw Accuracy [%] ([4]; validation standard LLOV): 72.2%
Freeze-Thaw Accuracy [%] ([4]; validation standard MOV): 102.4%
Freeze-Thaw Accuracy [%] ([4]; validation standard ULOV): 92.4%
Autosampler (24h, 4°C) Accuracy [%] ([5]; validation standard 2xLLOV): 105.2%
Autosampler (72h, 4°C) Accuracy [%] ([5]; validation standard 2xLLOV): 103.5%
Autosampler (24h, 4°C) Accuracy [%] ([5]; validation standard LLOV): 88.1%
Autosampler (72h, 4°C) Accuracy [%] ([5]; validation standard LLOV): 86.1%
Autosampler (24h, 4°C) Accuracy [%] ([5]; validation standard MOV): 108.4%
Autosampler (72h, 4°C) Accuracy [%] ([5]; validation standard MOV): 103.8%
Autosampler (24h, 4°C) Accuracy [%] ([5]; validation standard ULOV): 96.5%
Autosampler (72h, 4°C) Accuracy [%] ([5]; validation standard ULOV): 94.7%

CCc1cc2c(cc1N1CCC(N3CCOCC3)CC1)C(C)(C)c1[nH]c3cc(C#N)ccc3c1C2=O [Alectinib]
Long-term stability, 1 month, -20°C Accuracy [%] ([2]; validation standard 2xLLOV): 87.1%
Long-term stability, 1 month, -80°C Accuracy [%] ([2]; validation standard 2xLLOV): 83.3%
Long-term stability, 2 month, -20°C Accuracy [%] ([2]; validation standard 2xLLOV): 86.4%
Long-term stability, 2 month, -80°C Accuracy [%] ([2]; validation standard 2xLLOV): 86.9%
Long-term stability, 3 month, -20°C Accuracy [%] ([2]; validation standard 2xLLOV): 82.7%
Long-term stability, 3 month, -80°C Accuracy [%] ([2]; validation standard 2xLLOV): 86.1%
Long-term stability, 6 weeks, 4°C, without daylight Accuracy [%] ([2]; validation standard 2xLLOV): 81.2%
Long-term stability, 1 month, -20°C Accuracy [%] ([2]; validation standard LLOV): 84.7%
Long-term stability, 1 month, -80°C Accuracy [%] ([2]; validation standard LLOV): 83.5%
Long-term stability, 2 month, -20°C Accuracy [%] ([2]; validation standard LLOV): 79.9%
Long-term stability, 2 month, -80°C Accuracy [%] ([2]; validation standard LLOV): 81.8%
Long-term stability, 3 month, -20°C Accuracy [%] ([2]; validation standard LLOV): 79.0%
Long-term stability, 3 month, -80°C Accuracy [%] ([2]; validation standard LLOV): 81.6%
Long-term stability, 6 weeks, 4°C, without daylight Accuracy [%] ([2]; validation standard LLOV): 75.7%
Long-term stability, 1 month, -20°C Accuracy [%] ([2]; validation standard MOV): 85.8%
Long-term stability, 1 month, -80°C Accuracy [%] ([2]; validation standard MOV): 83.9%
Long-term stability, 2 month, -20°C Accuracy [%] ([2]; validation standard MOV): 89.5%
Long-term stability, 2 month, -80°C Accuracy [%] ([2]; validation standard MOV): 89.3%
Long-term stability, 3 month, -20°C Accuracy [%] ([2]; validation standard MOV): 88.4%
Long-term stability, 3 month, -80°C Accuracy [%] ([2]; validation standard MOV): 86.7%
Long-term stability, 6 weeks, 4°C, without daylight Accuracy [%] ([2]; validation standard MOV): 92.7%
Long-term stability, 1 month, -20°C Accuracy [%] ([2]; validation standard ULOV): 85.2%
Long-term stability, 1 month, -80°C Accuracy [%] ([2]; validation standard ULOV): 81.7%
Long-term stability, 2 month, -20°C Accuracy [%] ([2]; validation standard ULOV): 88.3%
Long-term stability, 2 month, -80°C Accuracy [%] ([2]; validation standard ULOV): 88.1%
Long-term stability, 3 month, -20°C Accuracy [%] ([2]; validation standard ULOV): 84.7%
Long-term stability, 3 month, -80°C Accuracy [%] ([2]; validation standard ULOV): 84.8%
Long-term stability, 6 weeks, 4°C, without daylight Accuracy [%] ([2]; validation standard ULOV): 86.5%
Freeze-Thaw Accuracy [%] ([4]; validation standard 2xLLOV): 100.0%
Freeze-Thaw Accuracy [%] ([4]; validation standard LLOV): 91.2%
Freeze-Thaw Accuracy [%] ([4]; validation standard MOV): 101.2%
Freeze-Thaw Accuracy [%] ([4]; validation standard ULOV): 96.5%
Autosampler (24h, 4°C) Accuracy [%] ([5]; validation standard 2xLLOV): 99.6%
Autosampler (72h, 4°C) Accuracy [%] ([5]; validation standard 2xLLOV): 102.6%
Autosampler (24h, 4°C) Accuracy [%] ([5]; validation standard LLOV): 91.8%
Autosampler (72h, 4°C) Accuracy [%] ([5]; validation standard LLOV): 93.7%
Autosampler (24h, 4°C) Accuracy [%] ([5]; validation standard MOV): 104.1%
Autosampler (72h, 4°C) Accuracy [%] ([5]; validation standard MOV): 104.1%
Autosampler (24h, 4°C) Accuracy [%] ([5]; validation standard ULOV): 99.3%
Autosampler (72h, 4°C) Accuracy [%] ([5]; validation standard ULOV): 100.6%

CC(=O)c1c(C)c2cnc(Nc3ccc(N4CCNCC4)cn3)nc2n(C2CCCC2)c1=O [Palbociclib]
Autosampler (24h, 4°C) Accuracy [%] ([5]; validation standard 2xLLOV): 99.9%
Autosampler (72h, 4°C) Accuracy [%] ([5]; validation standard 2xLLOV): 100.1%
Autosampler (24h, 4°C) Accuracy [%] ([5]; validation standard LLOV): 99.4%
Autosampler (72h, 4°C) Accuracy [%] ([5]; validation standard LLOV): 97.9%
Autosampler (24h, 4°C) Accuracy [%] ([5]; validation standard MOV): 101.0%
Autosampler (72h, 4°C) Accuracy [%] ([5]; validation standard MOV): 96.9%
Autosampler (24h, 4°C) Accuracy [%] ([5]; validation standard ULOV): 103.9%
Autosampler (72h, 4°C) Accuracy [%] ([5]; validation standard ULOV): 102.9%

COc1cc(Nc2c(C#N)cnc3cc(OCCCN4CCN(C)CC4)c(OC)cc23)c(Cl)cc1Cl [Bosutinib]
cmin [3]: 147 ng/mL
Freeze-Thaw Accuracy [%] ([4]; validation standard 2xLLOV): 89.9%
Freeze-Thaw Accuracy [%] ([4]; validation standard LLOV): 102.2%
Freeze-Thaw Accuracy [%] ([4]; validation standard MOV): 92.6%
Freeze-Thaw Accuracy [%] ([4]; validation standard ULOV): 94.6%
